What was measured:
[1] = tested on: OVX rats; assay: Ovariectomized rat model: serum osteocalcin by radioimmunoassay; format: in vivo; details: daily for 4 weeks
From the text: (§1) In women, estrogen deficiency during the menopause results in increased bone turnover leading to bone loss. Ovariectomy in rats produces estrogen deficiency and increased bone turnover leading to trabecular bone loss similar to that observed in post-menopausal women (Kalu, D. N., Bone and Mineral 1991 ;15:175; Frost, H. M., Jee W. S. S., Bone and Mineral 1992;18:227; Wronski, T. J., Yen, C-F, Cells Materials 1991;(suppl. 1):69). The OVX rat is thus an appropriate model to evaluate compounds for the prevention and treatment of post-menopausal osteoporosis. The ability of PPTN to inhibit estrogen deficiency bone loss was assessed in 5-month-old OVX rats, since ovariectomy causes significant bone loss in the lumbar vertebrae, proximal tibia, and distal femoral metaphyses (Ke, H. Z., et al., Endocrin 1995;136:2435; Chen, H. K., et al., J Bone Miner Res 1995;10:1256).
Five-month-old OVX female rats were treated with PPTN at oral doses of 0.733, 7.33, 73.3, and 733 μg/kg/day, or 17α-ethynyl estradiol (EE) at 30 μg/kg/day (10 rats per subgroup) daily for 4 weeks. […] The effects of PPTN on the following end points were determined: (a) serum osteocalcin, a biochemical marker of bone turnover, (b) bone mineral density of lumbar vertebrae and distal femoral metaphyses, (c) bone histomorphometry of fifth lumbar vertebral body and proximal tibial metaphyses. […]

[2] = tested on: OVX rats; assay: Ovariectomized rat model: lumbar vertebrae BMD by dual-energy X-ray absorptiometry; format: in vivo; details: 4 weeks
From the text: as §1
(§2) Five-month-old OVX female rats were treated with PPTN at oral doses of 0.733, 7.33, 73.3, and 733 μg/kg/day, or 17α-ethynyl estradiol (EE) at 30 μg/kg/day (10 rats per subgroup) daily for 4 weeks. The oral treatment began 1 day after surgery. Groups of vehicle-treated sham rats (n=10) and vehicle-treated OVX rats (n=10) served as controls. Calcein at 10 mg/kg was injected s.c. to all rats 12 and 2 days before necropsy as a fluorochrome bone marker to measure bone dynamic histomorphometric parameters. The effects of PPTN on the following end points were determined: (a) serum osteocalcin, a biochemical marker of bone turnover, (b) bone mineral density of lumbar vertebrae and distal femoral metaphyses, (c) bone histomorphometry of fifth lumbar vertebral body and proximal tibial metaphyses.
The first to the sixth lumbar vertebrae from each rat were removed during necropsy. These were then scanned ex vivo using dual-energy X-ray absorptiometry. The scan images were analyzed, and bone area, bone mineral content (BMC), and bone mineral density (BMD) of whole lumbar vertebrae (WLV), and LV1 through LV6 were determined. […] The changes in BMC were similar to those observed in BMD. […]

[3] = tested on: OVX rats; assay: Ovariectomized rat model: bone histomorphometry of fifth lumbar vertebral body; format: in vivo; details: 4 weeks
From the text: as §1, §2
In order to understand the cellular mechanism of bone-protective effects of PPTN at the tissue level, bone histomorphometric methods were used to determine the effects of PPTN on cancellous bone of the fifth lumbar vertebral body in OVX rats. Ovariectomy caused significant decreases in trabecular bone volume (trabecular bone area divided by marrow space area, expressed as percent) and trabecular number, and a significant increase in trabecular separation of the fifth lumbar vertebral body.

[4] = tested on: OVX rats; assay: Ovariectomized rat model: femur BMD by dual-energy X-ray absorptiometry; format: in vivo; details: 4 weeks
From the text: as §1, §2
Using dual-energy X-ray absorptiometry, the right femur of each rat was scanned ex vivo. Bone mineral density (BMD) of the distal femoral metaphyses (second 0.5 cm from the distal end of femur) and the proximal femur (the first 0.5 cm from the proximal end of femur, which contains the femoral head, neck, and greater trochanter) was determined.

[5] = tested on: OVX rats; assay: Ovariectomized rat model: histomorphometry of proximal tibial metaphyses; format: in vivo; details: 4 weeks
From the text: as §1, §2
In order to determine the effect of PPTN on long bone metaphyses, histomorphometric analyses were performed on the proximal tibiae.

[6] = tested on: MDA-MB-231 cells; assay: Inhibition of in vitro human breast tumor cell growth, ER-negative cells; format: cell-based; details: MDA-MB-231 (ER-negative), 6 days incubation, direct cell counts
Protocol: The in vitro antiproliferative effects of (−)-cis-6-phenyl-5-[4-(2-pyrrolidin-1-yl-ethoxy)-phenyl]-5,6,7,8-tetrahydro-naphthalene-2-ol (PPTN) were tested using two types of human breast cancer cell lines: first, MCF-7 cells, which contain ER as well as progesterone receptors (PgR), and second, MDA-MB-231 cells, which lack ER and PgR, and enable the determination of an effect that is independent of the ER mechanism. The effect of PPTN on the growth of these different cell lines was determined by incubation of the cells with various compound concentrations for 6 days.
The antiproliferative effects were then determined by direct cell counts. PPTN inhibited the growth of the ER-positive cell line MCF-7.

[7] = PPTN at doses ≧7.33 μg/kg/day oral
[8] = PPTN at 7.33, 73.3, or 733 μg/kg/day oral

C#C[C@]1(O)CC[C@H]2[C@@H]3CCc4cc(O)ccc4[C@H]3CC[C@@]21C [EE, 17α-ethynyl estradiol, reference compound]
increase in serum osteocalcin concentration after ovariectomy ([1]; EE 30 μg/kg/day oral): completely prevented | decrease in lumbar vertebral BMD after ovariectomy ([2]; EE 30 μg/kg/day oral): completely prevented the decrease | bone turnover rate, lumbar vertebral body ([3]; EE 30 μg/kg/day oral): did not differ from sham controls | ovariectomy-induced changes in trabecular bone volume, trabecular number and trabecular separation of fifth lumbar vertebral body ([3]; EE 30 μg/kg/day oral): completely prevented | ovariectomy-induced increase in bone formation rate (BFR) ([3]; EE 30 μg/kg/day oral): inhibited this increase | percent eroded surface (index of osteoclastic bone resorption) compared with sham controls ([3]; EE 30 μg/kg/day oral): significantly decreased | trabecular number of fifth lumbar vertebral body compared with sham controls ([3]; EE 30 μg/kg/day oral): significantly increased | decrease in BMD of distal femoral metaphyses after ovariectomy ([4]; EE 30 μg/kg/day oral): prevented the decrease | proximal femoral BMD ([4]; EE 30 μg/kg/day oral): had no effect | bone turnover rate in proximal tibial trabecular bone ([5]; EE 30 μg/kg/day oral): did not differ from sham controls | osteoclast number per millimeter of bone surface compared with both sham and OVX controls ([5]; EE 30 μg/kg/day oral): significantly decreased | percent osteoclast surface compared with both sham and OVX controls ([5]; EE 30 μg/kg/day oral): significantly decreased

Oc1ccc2c(c1)CC[C@H](c1ccccc1)[C@@H]2c1ccc(OCCN2CCCC2)cc1 [PPTN, (−)-cis-6-phenyl-5-[4-(2-pyrrolidin-1-yl-ethoxy)-phenyl]-5,6,7,8-tetrahydro-naphthalene-2-ol]
inhibition of cell proliferation [6]: did not inhibit cell proliferation | increase in serum osteocalcin concentration after ovariectomy [1, 7]: completely prevented | lumbar vertebral BMD compared with both sham and OVX controls ([2]; PPTN 73.3 μg/kg/day oral): increased significantly | decrease in lumbar vertebral BMD after ovariectomy ([2]; PPTN at all dose levels (0.733 to 733 μg/kg/day oral)): completely prevented the decrease | ED50 in preserving lumbar vertebral cancellous bone mass and structure ([3]; OVX rats, oral, lumbar vertebrae): less than 0.733 μg/kg/day | bone loss in lumbar vertebrae ([3]; PPTN at 0.733 μg/kg/day oral): completely prevented bone loss | trabecular number of fifth lumbar vertebral body compared with sham controls ([3]; PPTN at 73.3 or 733 μg/kg/day oral): significantly increased | bone turnover rate, lumbar vertebral body ([3]; PPTN at all dose levels, oral): did not differ from sham controls | ovariectomy-induced increase in bone formation rate (BFR) ([3]; PPTN at all dose levels, oral): inhibited this increase | percent eroded surface (index of osteoclastic bone resorption) compared with sham controls ([3]; PPTN at all dose levels, oral): significantly decreased | ovariectomy-induced changes in trabecular bone volume, trabecular number and trabecular separation of fifth lumbar vertebral body ([3]; all doses of PPTN (0.733 to 733 μg/kg/day oral)): completely prevented | BMD of distal femoral metaphyses and proximal femur ([4]; PPTN at 0.733 or 7.33 μg/kg/day oral): did not differ from OVX controls | decreases in BMD of distal femoral metaphyses and proximal femur ([4]; PPTN at both 73.3 and 733 μg/kg/day oral): completely prevented the decreases | percent osteoclast surface compared with OVX controls ([5]; PPTN at 0.733 μg/kg/day oral): decreased significantly | prevention of bone loss in proximal tibiae ([5]; PPTN at 0.733 μg/kg/day oral): failed to do so | proximal tibial trabecular bone volume ([5]; PPTN at 0.733 μg/kg/day oral): no significant effect | osteoclast number per millimeter of bone surface compared with both sham and OVX controls [5, 8]: significantly decreased | percent osteoclast surface compared with both sham and OVX controls [5, 8]: significantly decreased | bone turnover rate in proximal tibial trabecular bone ([5]; PPTN at doses of 7.33 to 733 μg/kg/day oral): did not differ from sham controls | proximal tibial trabecular bone volume compared with OVX controls [5, 7]: significantly greater

— patent publication US6756401B2, “Compositions and methods for treating osteoporosis and lowering cholesterol” (Pfizer Inc., priority 2000, dated 2004)
